Assay [1] deals with U-266. The assay is described as follows: Induction of nitric oxide production in human U266 cells. Type of assay: functional, cell-based.
Assay [2] has as its system RPMI-8226. The assay is described as follows: Induction of apoptosis in human RPMI8226 cells at 10 to 20 uM by TUNEL assay relative to control. Type of assay: functional.

In general, IC50 refers to the concentration that inhibits the measured activity by half.

Structures are written as SMILES.

In turn, `O=C(O[C@@H]1Cc2c(O)cc(O)cc2O[C@@H]1c1cc(O)c(O)c(O)c1)c1cc(O)c(O)c(O)c1` [EPIGALOCATECHIN GALLATE] displayed an IC50 in assay [1] of 23.2 µM. The Activity in assay [2] is on record as greater than 100%.

(Values after ChEMBL document CHEMBL4364318, “Targeting multiple myeloma with natural polyphenols” (Eur J Med Chem, 2019).)
